Patent US4356165A, “Bupropion radioimmunoassay, and kit” (Burroughs Wellcome Co., priority 1980, dated 1982)

System: antisera raised by presenting a suitable bupropion variant-carrier material conjugate
Test: Competition of bupropion with radiolabeled bupropion or competitor for binding to antisera
Method: Samples of six standard solutions of bupropion in blank plasma having concentrations of 0.39 to 50 ng/ml) are pipetted (0.1 ml each) in duplicate into 12×75 mm plastic tubes. Duplicate non-specific binding (no antibody) and maximum binding tubes (no unlabeled bupropion) receive 0.1 ml blank plasma. Spiked plasma controls at several concentrations of (e.g., 1.0, 10.0, and 100 ng/ml) and plasma samples for assay (diluted into the standard range with blank plasma if necessary) are assayed in duplicate. After being placed in an ice bath, all tubes receive (in order) 0.2 ml ^3 H bupropion (416 pg. containing approximately 10^4 cpm) and 0.7 ml anti-bupropion serum (raised to a ring-functionalized immunogen according to the present invention) (at pre-determined dilutions such that approximately 40% of the ^3 H bupropion added is bound), both in assay buffer (0.05 M phosphate-bufferedisotonic saline, containing 0.01 M EDTA and 0.1% gelatin, pH 7.0). […] The supernatants, containing antibody-bound ^3 H bupropion are carefully decanted into liquid scintillation cocktail for quantitation of ^3 H. After counts (minus average non-specific binding cpm) are expressed as percentages of average maximum binding cpm, bupropion concentrations in plasma samples and spiked controls are read from a standard curve (log concentration vs percent average maximum binding).

CC(NC(C)(C)C)C(=O)c1cccc(Cl)c1 (racemic) [bupropion, (±)-2-tert-butylamino-3'-chloropropiophenone]
competition with radiolabeled bupropion or radiolabeled competitor for binding to antisera: successfully compete
